Laboratory results published in US5554637A, “Use of leflunomide for inhibiting interleukin 1 alpha” (priority 1993, dated 1996).
Entries after “also recorded” stand apart in the source; their conditions may differ.

Key:
IL1alpha = IL1alpha synthesis and liberation in lipopolysaccharide-stimulated mononuclear cells from human blood (sandwich enzyme immuno test); assay type: cell-based; conditions: for activity at 10 µM: concentration 0.01 mmol/l; for activity at 100 µM: concentration 0.1 mmol/l; for effect on the IL1alpha level: summary in words of Table 1
Method: The mononuclear cells from freshly isolated human citrate blood were enriched in accordance with known standard procedures (see Tiku et al., J. Immunol. 136/10 (1986) 3677):
10 ml of freshly prepared human citrate blood were carefully underlaid with 15 ml of Lynnphoprep^(R) (Molter GmbH, Heidelberg) and then centrifuged at 400 ×g for 40 min. at 20° C. The cell fraction which was visible as a white ring at the phase boundary was withdrawn with the aid of a syringe, diluted 1:1 (v/v) with PM-16 buffer (from Serva Feinbiochemica GmbH & Co. KG, Heidelberg) and then centrifuged, as above, for 10 min. The supernatant was washed with 10 ml of RPMI 1640 buffer (Gibco, Berlin) to which 300 mg/1 L-glutamine had previously been added. The washed cell fraction was taken up in 1 ml of RPMI 1640 to which 300 mg/1 L-glutamine, 25 mmol/1 HEPES (Gibco, Berlin), […] streptomycin and […] penicillin had previously been added. Using a cell counter (type IT, from Coulter Diagnostics, Krefeld), the cell suspension, which is composed of about 90% lymphocytes and 10% monocytes, was adjusted to about 5 million cells/mi. Cell viability was monitored before and after the inhibition experiments using the known lactate dehydrogenase method. In this case, no change in viability was observed.
The synthesis and liberation of cellular IL1alpha was induced by adding a solution of 500 ng of lipopolysaccharide (Salmonella abortus equi, Sigma GmbH, Deisenhofen) in 0.01 ml of dimethyl sulfoxide/water (1:10, v/v) to 0.48 ml of the above-described cell fraction. At the same time, a solution of leflunomide or leflunomide metabolite in 0.01 ml of dimethylsulfoxide (for the final concentration in each case, see Tab. 1) was added to the cell fraction and the mixture was left at 37° C. for 20 h in a commercially available incubator. After cooling down to 0° C., the samples were centrifuged for 1 min. in a bench centrifuge and in each case 0.025 ml aliquots of the supernatant were examined for their IL1alpha content using a "sandwich" enzyme immuno test kit (from Biermann GmbH, Bad Nauheim) in accordance with the manufacturer's instructions. The control values were determined without the addition of leflunomide or its metabolites and set at 100%. In particular, any possible influence of dimethyl sulfoxide on the IL1alpha level was excluded by appropriate comparative measurements.

[1] = metabolism of leflunomide under the conditions of the cell experiment (HPLC); assay type: in vitro ADME, human; conditions: human, mononuclear cells; mononuclear cell fraction, incubation conditions of Example 1, HPLC
mononuclear cells = test: as above; assay type: in vitro ADME, human; conditions: in words; isolated human mononuclear cells
cytokines = test: synthesis and liberation of cytokines from human blood cells; assay type: cell-based; conditions: in words
Method: The cell fraction which was visible as a white ring at the phase boundary was withdrawn with the aid of a syringe, diluted 1:1 (v/v) with PM-16 buffer (from Serva Feinbiochemica GmbH & Co. KG, Heidelberg) and then centrifuged, as above, for 10 min. […] Using a cell counter (type IT, from Coulter Diagnostics, Krefeld), the cell suspension, which is composed of about 90% lymphocytes and 10% monocytes, was adjusted to about 5 million cells/mi. Cell viability was monitored before and after the inhibition experiments using the known lactate dehydrogenase method.
At the same time, a solution of leflunomide or leflunomide metabolite in 0.01 ml of dimethylsulfoxide (for the final concentration in each case, see Tab. 1) was added to the cell fraction and the mixture was left at 37° C. for 20 h in a commercially available incubator. […] The control values were determined without the addition of leflunomide or its metabolites and set at 100%.

[2] = Homo sapiens, control without substance = 100%, LPS 500 ng, 37° C., 20 h, read-out: IL1alpha in the supernatant, % +/- standard deviation

| Structure (SMILES) | activity at 0.1 µM (IL1alpha; Homo sapiens, concentration 0.0001 mmol/l, control without substance = 100%, LPS 500 ng, 37° C., 20 h, read-out: IL1alpha in the supernatant, % +/- standard deviation) [%] | activity at 5 µM (IL1alpha; Homo sapiens, concentration 0.005 mmol/l, control without substance = 100%, LPS 500 ng, 37° C., 20 h, read-out: IL1alpha in the supernatant, % +/- standard deviation) [%] | activity at 10 µM (IL1alpha; [2]) [%] | activity at 50 µM (IL1alpha; Homo sapiens, concentration 0.05 mmol/l, control without substance = 100%, LPS 500 ng, 37° C., 20 h, read-out: IL1alpha in the supernatant, % +/- standard deviation) [%] | activity at 100 µM (IL1alpha; [2]) [%] | effect on the IL1alpha level (IL1alpha) | half-life [1] [h] | metabolism of leflunomide under the experimental conditions (mononuclear cells) | effect on the synthesis and liberation of cytokines from human blood cells (cytokines) |
| --- | --- | --- | --- | --- | --- | --- | --- | --- | --- |
| Cc1oncc1C(=O)Nc1ccc(C(F)(F)F)cc1 [Leflunomide, N-(4-trifluoromethylphenyl)-5-methylisoxazole-4-carboxamide] | 83 ± 16 | 62 | 54 ± 5 | 22 ± 2 | 22 ± 5 | clearly lowered | ~10 | did not, to any appreciable extent, metabolize the leflunomide to its metabolites; also recorded: metabolized only very slowly; also recorded: no appreciable metabolism | strong inhibitory effect |
| C/C(O)=C(\C#N)C(=O)Nc1ccc(C(F)(F)F)cc1 [Leflunomide metabolite, N-(4-trifluoromethylphenyl)-2-cyano-3-hydroxycrotonamide] |  |  | 100 ± 5 |  | 98 ± 7 | practically no effect on the IL1alpha level |  |  | does not exhibit this advantageous effect |
